Earlier results as cited in patent US7354574B2, “Treatment of ocular disease” (Advanced Ocular Systems Limited, priority 2002, dated 2008).

Conditions: administered systemically

Question: Which “Renal and hepatic toxicity” value does the source give for `C=CC[C@@H]1/C=C(\C)C[C@H](C)C[C@H](OC)[C@H]2O[C@@](O)(C(=O)C(=O)N3CCCC[C@H]3C(=O)O[C@H](/C(C)=C/[C@@H]3CC[C@@H](O)[C@H](OC)C3)[C@H](C)[C@@H](O)CC1=O)[C@H](C)C[C@@H]2OC` [tacrolimus] here?
Answer: Its value is “significant renal and hepatic toxicity”.
